Structures can show the parent of a compound that is named as a salt.
Target: T1, 5HT2 receptors (Rattus norvegicus, UniProt P14842)
T1 construct: from tissue; host or cells: external jugular vein of male Wistar rats
Test: Apparent dissociation constants (KB) against serotonin contraction in rat jugular vein
Type: cell-based
Conditions: serotonin agonist, antagonist incubated one hour, read-out: 5HT2 -Log Kb ± S.E. (converted)
Experimental: An initial optimum resting force of 1 and 4 g was applied to the jugular veins and aorta, respectively. […] Exp. Ther., 205, 400 (1978). Alpha receptor antagonist activity was evaluated in the aorta.

T1 sequence (P14842 whole entry): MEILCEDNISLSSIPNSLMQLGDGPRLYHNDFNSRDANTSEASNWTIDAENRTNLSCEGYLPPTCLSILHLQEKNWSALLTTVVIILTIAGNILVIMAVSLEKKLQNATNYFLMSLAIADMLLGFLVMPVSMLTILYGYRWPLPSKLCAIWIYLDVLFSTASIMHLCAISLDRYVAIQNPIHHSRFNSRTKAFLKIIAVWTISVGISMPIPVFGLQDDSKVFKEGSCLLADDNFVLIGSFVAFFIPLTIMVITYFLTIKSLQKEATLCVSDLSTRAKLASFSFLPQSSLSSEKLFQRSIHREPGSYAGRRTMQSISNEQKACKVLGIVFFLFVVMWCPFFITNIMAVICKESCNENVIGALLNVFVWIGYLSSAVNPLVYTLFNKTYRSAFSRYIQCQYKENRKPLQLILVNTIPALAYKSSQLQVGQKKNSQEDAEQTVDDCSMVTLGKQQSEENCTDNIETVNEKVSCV

Structure (SMILES): CC(OC(=O)[C@@H]1C[C@@H]2c3cccc4c3c(cn4C(C)C)C[C@H]2N(C)C1)C(=O)c1ccccc1 (mixture of isomers) [R^3=CH3 R^4=H R^10=H maleate, (±)-α-Methylphenacyl 1-isopropyl-9,10-dihydrolysergate maleate]
- Kb: 4.57 nM

Structure (SMILES): CC(C)n1cc2c3c(cccc31)[C@H]1C[C@@H](C(=O)OC(C)(C)C(=O)c3ccccc3)CN(C)[C@@H]1C2 [R^3=CH3 R^4=CH3 R^10=H maleate, α,α-Dimethylphenacyl 1-isopropyl-9,10-dihydrolysergate maleate monohydrate]
- Kb: 14.8 nM

Structure (SMILES): CC(OC(=O)[C@@H]1C[C@@H]2c3cccc4c3c(cn4C(C)C)C[C@H]2N(C)C1)C(=O)c1ccc(O)cc1 (stereo partly drawn) [R^3=CH3 R^4=H R^10=p-OH maleate, α-Methyl-p-hydroxyphenacyl 1-isopropyl-9,10-dihydrolysergate maleate]
- Kb: 0.347 nM

Structure (SMILES): CC(C)n1cc2c3c(cccc31)[C@H]1C[C@@H](C(=O)OCC(=O)c3ccccc3)CN(C)[C@@H]1C2 [R^3=H R^4=H R^10=H maleate.H2 O, phenacyl 1-isopropyl-9,10-dihydrolysergate maleate monohydrate]
- Kb: 15.1 nM

Structure (SMILES): CC(C)n1cc2c3c(cccc31)[C@H]1C[C@@H](C(=O)OCC(=O)c3ccc(Cl)cc3)CN(C)[C@@H]1C2 [R^3=H R^4=H R^10=p-Cl maleate, p-Chlorophenacyl 1-isopropyl-9,10-dihydrolysergate maleate]
- Kb: 34.7 nM

Structure (SMILES): COc1ccc(C(=O)COC(=O)[C@@H]2C[C@@H]3c4cccc5c4c(cn5C(C)C)C[C@H]3N(C)C2)cc1 [R^3=H R^4=H R^10=p-OCH3 maleate, p-Methoxyphenacyl 1-isopropyl-9,10-dihydrolysergate maleate]
- Kb: 1.29 nM

Structure (SMILES): CC(C)n1cc2c3c(cccc31)[C@H]1C[C@@H](C(=O)OCC(=O)c3ccc(O)cc3)CN(C)[C@@H]1C2 [R^3=H R^4=H R^10=p-OH maleate.H2 O, p-Hydroxyphenacyl 1-isopropyl-9,10-dihydrolysergate maleate]
- Kb: 0.138 nM

Structure (SMILES): CC(C)n1cc2c3c(cccc31)[C@H]1C[C@@H](C(=O)OCC(=O)c3ccc(-c4ccccc4)cc3)CN(C)[C@@H]1C2 [R^3=H R^4=H R^10=p-phenyl maleate, 4-Phenylphenacyl 1-isopropyl-9,10-dihydrolysergate maleate]
- Kb: 70.8 nM

From patent US4704396A, “Phenacyl esters of 1-substituted-6-(substituted and unsubstituted) dihydrolysergic acids useful as 5HT receptor antagonists” (Eli Lilly and Company, priority 1985, dated 1987)
